Bridge positions count the residues as written; N and C are the ends. Square brackets hold non-standard residues; d marks the D form. Peptide text beside a SMILES is read from it. S5 = C=CCCC[C@](C)(N)C(=O)O
Experiments:
TRB3 protein = target: T1, TRB3 protein (Homo sapiens, UniProt Q96RU7); assay: Surface plasmon resonance (Biacore T200) binding of polypeptides to TRB3 protein; details: SPR, FIG. 4-1, 4-2 and Table 1
T1 construct: purchased RD
T1 sequence (Q96RU7 1-358): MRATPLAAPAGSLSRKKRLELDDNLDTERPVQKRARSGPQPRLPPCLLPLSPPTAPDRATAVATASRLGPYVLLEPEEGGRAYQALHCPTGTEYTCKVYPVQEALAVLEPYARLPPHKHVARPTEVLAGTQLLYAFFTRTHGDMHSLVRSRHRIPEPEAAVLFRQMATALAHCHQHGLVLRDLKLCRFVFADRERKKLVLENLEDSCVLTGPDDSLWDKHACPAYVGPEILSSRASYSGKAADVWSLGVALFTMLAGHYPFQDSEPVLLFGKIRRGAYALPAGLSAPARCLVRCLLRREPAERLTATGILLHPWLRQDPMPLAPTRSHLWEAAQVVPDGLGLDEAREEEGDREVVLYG
Description: The surface plasmon resonance experiment was carried out in a surface plasmon resonator Biacore T200, and the procedure was carried out in accordance with the instructions of the plasma resonator Biacore T200. Specific steps are as follows:
1. Purified TRB3 protein (purchased from RD) was coupled to a CMS chip (purchased from GE) by amidogen, and the unbound protein was eluted at a flow rate of 10 μL/min. The surface of the chip was equilibrated for 2 hours. Among them, the specific steps of amidogen coupling, elution and equilibration refer to the relevant instruction of GE's CMS chip.
2. 250 μL of the S1-S11 and MR2 polypeptide fragments prepared in Example 1 with different concentrations (800, 400, 200, 50, 12.5, 6.25, and 3.125 nM) were automatically injected, and the entire surface plasmon resonance experiment was carried out at 25° C. The buffer used was HBS-EP buffer [0.01 M HEPES, 0.15 M NaCl, 3 mM EDTA and 0.005% (w/w) surfactant TWEEN20]. Biacore T200's built-in analysis software was used to simulate the binding curves of different concentrations of peptides to TRB3.

[1] = α-helix ratio of polypeptides by circular dichroism; type: physicochemical; details: PBS solution, 1 mg/mL
Description: The α-helix ratio of the polypeptide was measured by a circular dichromatograph (purchased from Jasco, Japan). The polypeptides MR2, S1, S2, S3, S4, S5, S6, S7, S8, S9, S10 and S11 prepared in Example 1 were dissolved in PBS solution, and the working concentration of the circular dichromatograph was adjusted to 1 mg/mL. […] Among them, the α-helix ratio refers to the percentage of the number of peptide segments of the polypeptide that maintains the alpha helix of the secondary structure in the peptide segments of the total polypeptide.

[2] = target: T2, TRB3/MDM2 protein interaction (Homo sapiens, UniProt Q96RU7); assay: Co-immunoprecipitation: inhibition of binding of MDM2 to TRB3 in BEAS-2B cells; type: cell-based; details: BEAS-2B cells with TRB3 expression plasmid, 1 mg/mL polypeptide, 12 hours, co-IP with MDM2 antibody
T2 construct: host or cells: BEAS-2B
T2 sequence (Q96RU7 1-358): T1 sequence (Q96RU7 1-358)
Description: 1. Human lung epithelial BEAS-2B cells (purchased from Institute of Basic Medical Sciences, Chinese Academy of Medical Sciences) were seeded in a 90 mm^2 culture dish. After the cells were adhered to the wall of culture dish, the TRB3 expression plasmid were transferred to the cells according to the method described in Example 5. After 24 hours, 1 mg/mL of the polypeptides MR2, S1, S2, S3, S4, S5, S6, S7, S8, S9, S10 or S11 prepared in Example 1 were added respectively, and the cells were incubated for 12 hours in a 37° C. incubator and then harvested.
2. Co-immunoprecipitation with MDM2 antibody was performed according to the method described in Example 3, followed by detection using TRB3 antibody.

[3] = system: mice with bleomycin-induced pulmonary fibrosis; assay: Survival rate of mice with bleomycin-induced pulmonary fibrosis; type: in vivo, C57BL/6 mice; details: Table 3 groups: 2 mg/kg i.p., 10th to 28th day after modeling, twice a week
Description: Male C57BL/6 mice were fasted overnight, then anesthetized with 45 mg/kg sodium pentobarbital by injection intraperitoneally (i.p.), and intratracheally injected with bleomycin at a dose of 3 U/kg. The specific operation steps are as follows: cut the neck skin of the mouse with as little trauma as possible, expose the trachea with the assistance of elbow ophthalmic forceps, puncture the trachea and inject about 50 μL of bleomycin into the trachea with a microsyringe, rotate the mouse quickly and stand it upright for 5 minutes in order to make bleomycin evenly enter the left and right lobe, thereby constructing an animal model. The whole operation was performed at a surgical table at about […]. Mice in the sham operation group were intratracheally injected with an equal amount of physiological saline for injection.
The animal model with pulmonary fibrosis was prepared according to the method described in Example 2. The peptide therapy was started from the 10th day after modeling (the treatment groups are shown in Table 3), and the time was calculated from the 10th day after modeling to count the mortality rate. The death situation of each group of experimental animals was counted and calculated daily. […] The survival rate is the percentage of the number of mice that survived accounting for the number of mice in the whole group. Results are shown in FIG. 6-1, FIG. 6-2 and Table 4. […] In FIG. 6-1 and FIG. 6-2, “##” represents that P value is less than 0.01 when the survival rate of administration group was compared with that of the sham operation group; “*” represents that P value is less than 0.05 when the survival rate of administration group was compared with that of the bleomycin group; “**” represents that P value is less than 0.01 when the survival rate of administration group was compared with that of bleomycin group; and “i.p.” refers to intraperitoneal injection.
The animal model of pulmonary fibrosis was prepared according to the method described in Example 2. The polypeptide treatment was started from the 10th day after modeling (the treatment groups are shown in Table 9), and the time was calculated from the 10th day after modeling to count the mortality rate. The mortality rate of each group of experimental animals was recorded and calculated daily. If none of the animals in a group died, the survival rate of the group is 100%. If all the animals in a group died, the survival rate is 0%. […] In FIG. 12, “##” represents that P value is less than 0.01 when the survival rate of the administration groups were compared with that of the sham operation group; “*” represents that P value is less than 0.05 and “**” represents that P value is less than 0.01 when the survival rate of the administration groups were compared with bleomycin group.

Row | Structure (SMILES) | interaction with the TRB3 protein (in words) (TRB3 protein) | α-helicity (%) [1] [%] | α-helix ratio compared with polypeptide MR2 (in words) [1] | interaction of TRB3 and MDM2 protein (FIG. 5, in words) [2] | Survival rate (%) 7 days [3] [%] | Survival rate (%) 14 days [3] [%] | Survival rate (%) 21 days [3] [%] | Survival rate (%) 28 days [3] [%]
1 | CSCC[C@H](NC(=O)[C@H](CC(C)C)NC(=O)[C@@H](N)Cc1c[nH]cn1)C(=O)N[C@@]1(C)CCCC=CCCC[C@@](C)(C(=O)N[C@@H](C)C(=O)N[C@@H](CCCCN)C(=O)N[C@@H](CCCCN)C(=O)N[C@@H](CC(C)C)C(=O)N[C@@H](CCCCN)C(=O)N[C@@H](CCCCN)C(=O)N[C@@H](CCCNC(=N)N)C(=O)O)NC(=O)[C@H]([C@@H](C)O)NC(=O)[C@H](Cc2ccccc2)NC(=O)[C@H](CS)NC1=O [S4, His-Leu-Met-S5-Cys-Phe-Thr-S5-Ala-Lys-Lys-Leu-Lys-Lys-Arg] (H-HLM[S5]CFT[S5]AKKLKKR-OH; staple 4-8; N-terminus and C-terminus assumed) | interacted with the TRB3 protein | 33.6 | significantly higher than that of polypeptide MR2 | interrupted | 100 | 86.67 | 80 | 80
2 | CSCC[C@H](NC(=O)[C@H](CC(C)C)NC(=O)[C@@H](N)Cc1c[nH]cn1)C(=O)N[C@@H](C)C(=O)N[C@@]1(C)CCCC=CCCC[C@@](C)(C(=O)N[C@@H](CCCCN)C(=O)N[C@@H](CCCCN)C(=O)N[C@@H](CC(C)C)C(=O)N[C@@H](CCCCN)C(=O)N[C@@H](CCCCN)C(=O)N[C@@H](CCCNC(=N)N)C(=O)O)NC(=O)[C@H](CS)NC(=O)[C@H]([C@@H](C)O)NC(=O)[C@H](Cc2ccccc2)NC1=O [S5, His-Leu-Met-Ala-S5-Phe-Thr-Cys-S5-Lys-Lys-Leu-Lys-Lys-Arg] (H-HLMA[S5]FTC[S5]KKLKKR-OH; staple 5-9; N-terminus and C-terminus assumed) | interacted with the TRB3 protein | 69.1 | significantly higher than that of polypeptide MR2 | interrupted | 100 | 100 | 93.33 | 93.33
3 | CSCC[C@H](NC(=O)[C@H](CC(C)C)NC(=O)[C@@H](N)Cc1c[nH]cn1)C(=O)N[C@@H](C)C(=O)N[C@@H](CS)C(=O)N[C@@]1(C)CCCC=CCCC[C@@](C)(C(=O)N[C@@H](CCCCN)C(=O)N[C@@H](CC(C)C)C(=O)N[C@@H](CCCCN)C(=O)N[C@@H](CCCCN)C(=O)N[C@@H](CCCNC(=N)N)C(=O)O)NC(=O)[C@H](C)NC(=O)[C@H](CS)NC(=O)[C@H]([C@@H](C)O)NC1=O [S6, His-Leu-Met-Ala-Cys-S5-Thr-Cys-Ala-S5-Lys-Leu-Lys-Lys-Arg] (H-HLMAC[S5]TCA[S5]KLKKR-OH; staple 6-10; N-terminus and C-terminus assumed) | interacted with the TRB3 protein | 36.4 | significantly higher than that of polypeptide MR2 | interrupted | 100 | 86.67 | 80 | 80

Reference: patent publication US20210179680A1, “POLYPEPTIDE, DERIVATIVES THEREOF, AND APPLICATION THEREOF IN PREPARATION OF DRUGS HAVING RESISTANCE TO PULMONARY FIBROSIS” (priority 2016, published 2021)
